Data on 17 compounds can be found in PubChem BioAssay (NCI).

Common to all, as to assay: NCI anticancer screen, dose series, 48 h
For experiment [1], the system named is ACHN renal.
Experiment [2] concerns HT29 colon.
The test system of experiment [3] is OVCAR-5 ovarian.
Experiment [4] has as its system HCT-116 colon.
The test system of experiment [5] is COLO 205 colon.
The subject of experiment [6] is UACC-62 melanoma.
For experiment [7], the system named is CCRF-CEM leukemia.
Experiment [8] deals with A498 renal.
Experiment [9] deals with NCI/ADR-RES ovarian.

Each structure is given as a SMILES string. Values joined by “and” are separate entries in the source; they are usually repeats but may differ in a detail not shown here. Equal values may be shown once.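 Protocol summary: plate cells (96-well), add compound at 5 concentrations, incubate 48 h, interpolate endpoints linearly. The concentration for 50% growth inhibition is given as GI50. TGI denotes the concentration required for complete inhibition of growth.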 A value given as a limit tells only on which side of the number the result lay.

For the compound `COc1ccc(/C=N/N=C(\N)NO)cc1OC`, the TGI in experiment [1] was greater than 100 µM; in [2], greater than 100 µM; in [3], greater than 100 µM; in [4] it was greater than 100 µM; in [5] it was greater than 100 µM; in experiment [6], 72.1 µM. The TGI in [7] was greater than 100 µM.
As to `O=C1c2cccc3cc([N+](=O)[O-])cc(c23)C(=O)N1CCNCCNCCNCCN1C(=O)c2cccc3cc([N+](=O)[O-])cc(c23)C1=O`, the GI50 in [8] was less than 0.001 µM. Besides, the TGI in experiment [8] came to 0.227 µM; in [3], 0.326 µM; in experiment [4], 1.08 µM; in experiment [6], 0.106 µM; in experiment [7], 0.635 µM.
As for `CCN1C2=NC(=O)N(C)C(=O)C2(Cl)C(C(SC)S(=O)(=O)c2ccc(C)cc2)c2ccccc21` (configuration not stated), the TGI in experiment [8] was greater than 100 µM; in experiment [2], greater than 100 µM; in experiment [3], greater than 100 µM; in [4], 53.6 µM; in experiment [5], 99.2 µM; in experiment [6], greater than 100 µM. Further, the TGI in experiment [7] stood at 25.7 µM.
In the case of `CCCCCCCCCC(=O)CC(=O)c1ccc(O)cc1O`, the TGI was 89.3 µM in experiment [1]; greater than 100 µM in [2]; 94 µM in experiment [3]; 66.6 µM in [4]; greater than 100 µM in experiment [5]; 43 µM in [6]. This compound also displayed a TGI in [7] greater than 100 µM.
On to `COC(=O)C1=C(C)N(NC(N)=O)C2(N)N(NC(N)=O)C(C)=C(C(=O)OC)C12C(=O)OC` (configuration not stated), for which the TGI in experiment [1], in experiment [8], in experiment [2], in experiment [3], in [4] and in experiment [5] was greater than 100 µM each time. Moreover, the TGI in experiment [6] and in [7] was greater than 100 µM each time.
With `O=C1NC(=S)NC(=O)C1=Cc1cc2c(cc1[N+](=O)[O-])OCO2`, the TGI in [1], in [8], in experiment [4], in experiment [5], in [6] and in experiment [7] was greater than 100 µM each time.
As for `CC(=O)OC1C(=O)C(O)C(C)OC1O[C@@H]1C[C@@]2(C)[C@@H]3CC=C4[C@@H](C[C@H](O)C(=O)C4(C)C)[C@]3(C)C(=O)C[C@]2(C)[C@H]1[C@@](C)(O)C(=O)/C=C/C(C)(C)O` (some centres not stated), the TGI in experiment [1] is 7.38 µM; in experiment [8], 1.04 µM; in experiment [2] it was greater than 10 µM; in experiment [3] it was greater than 10 µM; in [4], greater than 10 µM; in experiment [5] it was greater than 6.77 µM. Further, the TGI in experiment [6] was greater than 7.98 µM; in [7], greater than 7.21 µM.
As for `CC(=O)O[C@H]1C(=O)[C@@]2(C)C(C(OC(=O)c3ccccc3)[C@]3(O)CC(OC(=O)[C@H](OC(=O)CCC(=O)O)C(NC(=O)c4ccccc4)c4ccccc4)C(C)=C1C3(C)C)C1(OC(C)=O)COC1C[C@@H]2OC(=O)CCC(=O)O` (some centres not stated), the TGI in experiment [1] was greater than 100 µM; in [8], 5.65 µM; in experiment [4], greater than 100 µM; in experiment [5], 18.6 µM; in experiment [9], greater than 100 µM; in experiment [6], 29.3 µM. The GI50 in experiment [8] is 0.0997 µM; in [5] it was 0.865 µM; in experiment [9] it was > 100 µM and 26.6 µM; in [6] it was 2.05 µM.
Turning to `O=c1n(C2CCCCC2)c(=C(Cl)Cl)c(=C(Cl)Cl)n1C1CCCCC1`, the TGI in [1], in experiment [8], in experiment [2], in experiment [3], in [4] and in experiment [5] was greater than 100 µM throughout. The TGI in [6] and in [7] was greater than 100 µM throughout.
Turning to `CCOc1ccc(N=Cc2cccc3cccnc23)cc1`, the TGI in experiment [1], in experiment [8], in experiment [2], in experiment [3], in experiment [4] and in experiment [5] was greater than 100 µM throughout. Moreover, the TGI in experiment [6] and in [7] was greater than 100 µM each time.
`COc1ccc(C=C2C(=O)OC(C)(C)OC2=O)cc1OC`: the TGI in [1], in [8], in experiment [2], in experiment [3], in experiment [5] and in experiment [6] was greater than 100 µM throughout. Also, the TGI in [7] was greater than 100 µM.
Turning to `CC(O)/C=C/C(CCC(C)CO)C(C)C` (configuration not stated), the TGI in experiment [1], in experiment [8], in experiment [2], in experiment [3], in experiment [4] and in [5] was greater than 100 µM throughout. The TGI in [6] and in [7] was greater than 100 µM throughout.
As for `CC(C)NCCNC(=O)c1ccccc1Nc1c(Cl)cccc1Cl`, the TGI in experiment [1] was determined as 31.2 µM; in [2], 17.5 µM; in [3] it was 20.4 µM; in experiment [4], 23.4 µM; in experiment [5], 24.9 µM; in experiment [6] it was 30.1 µM. Further, the TGI in [7] was 27.1 µM.
For the compound `O=C1C(Cl)C(c2cccc(O)c2)N1n1cnc2ccccc2c1=O` (configuration not stated), the TGI in experiment [1], in [2], in experiment [3], in experiment [4], in experiment [5] and in [6] was greater than 100 µM in each case.
As for `COc1cc2oc(=O)ccc2cc1C1OC(=O)C2OC21C` (configuration not stated), the TGI in experiment [1], in [2], in experiment [3], in experiment [4], in experiment [5] and in experiment [9] was greater than 100 µM in each case. In addition, the TGI in experiment [6] and in experiment [7] was greater than 100 µM throughout.
Regarding `COc1ccc2[nH]c(-c3ccccn3)cc(=O)c2c1`, the TGI in experiment [1], in [2], in [3], in experiment [4], in experiment [5] and in [6] was greater than 100 µM each time. The TGI in experiment [7] is greater than 100 µM. In addition, in experiment [4], the GI50 was 33.6 µM.
Consider `Cc1cccc(C(C)(C)C)c1NC(=O)C(=O)C(C(=O)/C=C\c1ccccc1)C1OC(=O)c2ccccc21` (configuration not stated), for which the TGI in experiment [1], in experiment [8], in experiment [2], in [3], in experiment [4] and in experiment [5] was greater than 100 µM each time. Further, the TGI in experiment [6] and in [7] was greater than 100 µM in each case.
